Experimental data taken from publication PMC9090415, “Discovery of small molecule inhibitors of Plasmodium falciparum apicoplast DNA polymerase” (Journal of Enzyme Inhibition and Medicinal Chemistry, 2022).

Biological target: T1, bacteriophage T4 DNA polymerase (Enterobacteria phage T4, UniProt P04415)
T1 construct: made in house
T1 sequence (P04415 1-898): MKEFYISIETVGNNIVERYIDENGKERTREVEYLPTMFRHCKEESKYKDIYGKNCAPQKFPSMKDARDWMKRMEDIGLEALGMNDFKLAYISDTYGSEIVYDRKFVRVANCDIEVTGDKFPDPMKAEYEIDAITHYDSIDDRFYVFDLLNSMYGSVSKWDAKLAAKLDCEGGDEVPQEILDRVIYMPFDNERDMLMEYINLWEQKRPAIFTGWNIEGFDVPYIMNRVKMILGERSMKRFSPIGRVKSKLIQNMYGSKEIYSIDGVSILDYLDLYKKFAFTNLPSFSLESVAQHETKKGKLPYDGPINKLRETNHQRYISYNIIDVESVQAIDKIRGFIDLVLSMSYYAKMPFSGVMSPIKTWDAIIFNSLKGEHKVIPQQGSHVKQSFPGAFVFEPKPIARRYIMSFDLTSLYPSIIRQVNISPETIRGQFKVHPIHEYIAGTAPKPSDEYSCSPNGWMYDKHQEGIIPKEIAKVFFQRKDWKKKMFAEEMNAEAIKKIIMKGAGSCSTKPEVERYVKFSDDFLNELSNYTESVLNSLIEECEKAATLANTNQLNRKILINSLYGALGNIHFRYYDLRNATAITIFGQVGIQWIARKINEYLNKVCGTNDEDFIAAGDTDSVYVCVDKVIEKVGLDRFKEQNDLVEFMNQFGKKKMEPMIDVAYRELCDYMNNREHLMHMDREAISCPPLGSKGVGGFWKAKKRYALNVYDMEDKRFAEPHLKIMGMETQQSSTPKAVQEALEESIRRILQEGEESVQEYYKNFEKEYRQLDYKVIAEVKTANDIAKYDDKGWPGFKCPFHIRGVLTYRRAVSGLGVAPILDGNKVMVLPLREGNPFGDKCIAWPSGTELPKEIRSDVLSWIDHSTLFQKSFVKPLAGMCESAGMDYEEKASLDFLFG
Assay: Counter-screen against bacteriophage T4 DNA polymerase
Format: biochemical
Conditions: for % inhibition T4 10' 2.5 / % inhibition T4 10' 5 / % inhibition T4 10' 10 / % inhibition T4 10' 20 / % inhibition T4 10' 40 / % inhibition T4 10' 80: read at 10'; for % inhibition T4 10' 2.5 / % inhibition T4 70' 2.5 / % inhibition T4 130' 2.5 / % inhibition T4 40' 2.5 / % inhibition T4 90' 2.5 / % inhibition T4 180' 2.5: concentration 2.5; for % inhibition T4 10' 5 / % inhibition T4 70' 5 / % inhibition T4 130' 5 / % inhibition T4 40' 5 / % inhibition T4 90' 5 / % inhibition T4 180' 5: concentration 5; for % inhibition T4 10' 10 / % inhibition T4 70' 10 / % inhibition T4 130' 10 / % inhibition T4 40' 10 / % inhibition T4 90' 10 / % inhibition T4 180' 10: concentration 10; for % inhibition T4 10' 20 / % inhibition T4 70' 20 / % inhibition T4 130' 20 / % inhibition T4 40' 20 / % inhibition T4 90' 20 / % inhibition T4 180' 20: concentration 20; for % inhibition T4 10' 40 / % inhibition T4 70' 40 / % inhibition T4 130' 40 / % inhibition T4 40' 40 / % inhibition T4 90' 40 / % inhibition T4 180' 40: concentration 40; for % inhibition T4 10' 80 / % inhibition T4 70' 80 / % inhibition T4 130' 80 / % inhibition T4 40' 80 / % inhibition T4 90' 80 / % inhibition T4 180' 80: concentration 80; for % inhibition T4 70' 2.5 / % inhibition T4 70' 5 / % inhibition T4 70' 10 / % inhibition T4 70' 20 / % inhibition T4 70' 40 / % inhibition T4 70' 80: read at 70'; for % inhibition T4 130' 2.5 / % inhibition T4 130' 5 / % inhibition T4 130' 10 / % inhibition T4 130' 20 / % inhibition T4 130' 40 / % inhibition T4 130' 80: read at 130'; for % inhibition T4 40' 2.5 / % inhibition T4 40' 5 / % inhibition T4 40' 10 / % inhibition T4 40' 20 / % inhibition T4 40' 40 / % inhibition T4 40' 80: read at 40'; for % inhibition T4 90' 2.5 / % inhibition T4 90' 5 / % inhibition T4 90' 10 / % inhibition T4 90' 20 / % inhibition T4 90' 40 / % inhibition T4 90' 80: read at 90'; for % inhibition T4 180' 2.5 / % inhibition T4 180' 5 / % inhibition T4 180' 10 / % inhibition T4 180' 20 / % inhibition T4 180' 40 / % inhibition T4 180' 80: read at 180'
Summary of the method: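 IC50 values come from dose-response testing of each compound against T4 DNA polymerase. This B-family polymerase was purified in-house and used as the counter-screen.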

Compound: O=C(CCc1csc(NC(=O)Nc2ccccc2)n1)Nc1nc2ccccc2s1 [KU0177354]
- % inhibition T4 10' 2.5 (DRC-1): 0.07751%
- % inhibition T4 10' 5 (DRC-1): 7.751%
- % inhibition T4 10' 10 (DRC-1): 13.5789%
- % inhibition T4 10' 20 (DRC-1): 14.0599%
- % inhibition T4 10' 40 (DRC-1): 17.0084%
- % inhibition T4 10' 80 (DRC-1): 35.4647%
- % inhibition T4 70' 2.5 (DRC-1): 1.62%
- % inhibition T4 70' 5 (DRC-1): 6.65%
- % inhibition T4 70' 10 (DRC-1): 12.106%
- % inhibition T4 70' 20 (DRC-1): 12.7058%
- % inhibition T4 70' 40 (DRC-1): 16.9924%
- % inhibition T4 70' 80 (DRC-1): 32.2475%
- % inhibition T4 130' 2.5 (DRC-1): -0.4187%
- % inhibition T4 130' 5 (DRC-1): 3.945%
- % inhibition T4 130' 10 (DRC-1): 9.972%
- % inhibition T4 130' 20 (DRC-1): 11.4415%
- % inhibition T4 130' 40 (DRC-1): 15.4247%
- % inhibition T4 130' 80 (DRC-1): 30.1254%
- % inhibition T4 10' 2.5 (DRC-2): -8%
- % inhibition T4 10' 5 (DRC-2): 2.7%
- % inhibition T4 10' 10 (DRC-2): 9%
- % inhibition T4 10' 20 (DRC-2): 6.49%
- % inhibition T4 10' 40 (DRC-2): 5.57%
- % inhibition T4 10' 80 (DRC-2): 11%
- % inhibition T4 40' 2.5 (DRC-2): -8%
- % inhibition T4 40' 5 (DRC-2): 2%
- % inhibition T4 40' 10 (DRC-2): 9%
- % inhibition T4 40' 20 (DRC-2): 5.69%
- % inhibition T4 40' 40 (DRC-2): 5%
- % inhibition T4 40' 80 (DRC-2): 14%
- % inhibition T4 90' 2.5 (DRC-2): -7%
- % inhibition T4 90' 5 (DRC-2): 3%
- % inhibition T4 90' 10 (DRC-2): 8.56%
- % inhibition T4 90' 20 (DRC-2): 5.54%
- % inhibition T4 90' 40 (DRC-2): 5%
- % inhibition T4 90' 80 (DRC-2): 17%
- % inhibition T4 180' 2.5 (DRC-2): -11%
- % inhibition T4 180' 5 (DRC-2): -1.4%
- % inhibition T4 180' 10 (DRC-2): 3%
- % inhibition T4 180' 20 (DRC-2): 1.84%
- % inhibition T4 180' 40 (DRC-2): 2.2%
- % inhibition T4 180' 80 (DRC-2): 18%

Compound: N#Cc1c(O)nc(N2CCCCC2)nc1-c1ccc2c(c1)OCO2 [KU0083146]
- % inhibition T4 10' 2.5 (DRC-1): -1.681%
- % inhibition T4 10' 5 (DRC-1): -6.153%
- % inhibition T4 10' 10 (DRC-1): -0.208%
- % inhibition T4 10' 20 (DRC-1): -4.89%
- % inhibition T4 10' 40 (DRC-1): 2.23%
- % inhibition T4 10' 80 (DRC-1): 27.8578%
- % inhibition T4 70' 2.5 (DRC-1): -2.1541%
- % inhibition T4 70' 5 (DRC-1): -7.277%
- % inhibition T4 70' 10 (DRC-1): -0.8576%
- % inhibition T4 70' 20 (DRC-1): -6.699%
- % inhibition T4 70' 40 (DRC-1): -0.3941%
- % inhibition T4 70' 80 (DRC-1): 25.8853%
- % inhibition T4 130' 2.5 (DRC-1): -4.596%
- % inhibition T4 130' 5 (DRC-1): -9.967%
- % inhibition T4 130' 10 (DRC-1): -3.465%
- % inhibition T4 130' 20 (DRC-1): -8.629%
- % inhibition T4 130' 40 (DRC-1): -2.723%
- % inhibition T4 130' 80 (DRC-1): 26.2784%
- % inhibition T4 10' 2.5 (DRC-2): 12%
- % inhibition T4 10' 5 (DRC-2): 9%
- % inhibition T4 10' 10 (DRC-2): -0.482%
- % inhibition T4 10' 20 (DRC-2): -17%
- % inhibition T4 10' 40 (DRC-2): -12%
- % inhibition T4 10' 80 (DRC-2): -1.89%
- % inhibition T4 40' 2.5 (DRC-2): 13%
- % inhibition T4 40' 5 (DRC-2): 10%
- % inhibition T4 40' 10 (DRC-2): 2%
- % inhibition T4 40' 20 (DRC-2): -13%
- % inhibition T4 40' 40 (DRC-2): -9%
- % inhibition T4 40' 80 (DRC-2): 3.39%
- % inhibition T4 90' 2.5 (DRC-2): 13%
- % inhibition T4 90' 5 (DRC-2): 12%
- % inhibition T4 90' 10 (DRC-2): 2.84%
- % inhibition T4 90' 20 (DRC-2): -10%
- % inhibition T4 90' 40 (DRC-2): -5.54%
- % inhibition T4 90' 80 (DRC-2): 3.63%
- % inhibition T4 180' 2.5 (DRC-2): 12%
- % inhibition T4 180' 5 (DRC-2): 11%
- % inhibition T4 180' 10 (DRC-2): 4%
- % inhibition T4 180' 20 (DRC-2): -10%
- % inhibition T4 180' 40 (DRC-2): -6.49%
- % inhibition T4 180' 80 (DRC-2): 2.15%
